Consider 43 molecules from patent US20240109868A1, “EP300/CBP MODULATOR, PREPARATION METHOD THEREFOR AND USE THEREOF” (Miracure Biotechnology Limited, priority 2022, published 2024).

Assay [1] relates to 22Rv1 Cell. As to the kind of experiment: 22RV1 cell growth inhibition, CellTiter-Glo, 72 h. Type of assay: cell-based. Particulars: Homo sapiens, 22Rv1, 72 h, 22RV1 cells, 72 h culture. How it is done: (§1) 22RV1 or vCap cells were cultured in RPMI-1640 medium (10% fetal bovine serum and 100 units (per mL) of penicillin/streptomycin dual antibody were added to RPMI-1640) in a 37° C., 5% CO2 cell incubator. Cells at the logarithmic growth phase were inoculated onto a 96-well cell culture plate at 5×10^3 cells/100 μL/well and cultured overnight. Solutions of different concentrations of an active compound in DMSO were added, with the final concentration being 0.5% DMSO. The positive control was 1% TweeN2O, and the negative control was 0.5% DMSO. After 72 h of culture, an equal volume of CellTiter-Glo was added to each well, and the mixtures were mixed homogeneously by shaking for 2 min. The plate was let stand at room temperature for 10 min, and fluorescence signal values were read using a microplate reader. Data were analyzed using Prism 7.0 and graphs were generated. The values are shown as mean f SEM (N=2). […] The X-axis represents compound concentration (μM), and the Y-axis represents % inhibition.

Assay [2] relates to vCap Cell. The assay is described as follows: vCap cell growth inhibition, CellTiter-Glo, 72 h. Format: cell-based. Particulars: Homo sapiens, VCaP, 72 h, vCap cells, 72 h culture. How it is done: as §1

Some results are limits rather than exact numbers.

As usually defined, the IC50 is the concentration needed to halve the response being measured.

For `CNC(=O)N1CCc2cc(C3CCN(C(C)=O)C3)cc(N3CCCc4cc(-c5cnn(C)c5)c(C(F)F)cc43)c2C1` (centres unmarked) [Compound M001054], the IC50 in assay [1] and in assay [2] was greater than 1000 nM throughout.

As to `CNC(=O)N1CCc2cc(C3CCN(CC(F)F)CC3)cc(N3CCCc4cc(-c5cnn(C)c5)c(C(F)F)cc43)c2C1` [Compound M001055], the IC50 in assay [1] and in assay [2] was greater than 1000 nM each time.

`CC(=O)N1Cc2cc(C3CCN(C4COC4)CC3)cc(N3CCCc4cc(-c5cnn(C)c5)c(C(F)F)cc43)c2C1` [Compound M001056]: the IC50 in assay [1] and in assay [2] was greater than 1000 nM each time.

`CC(=O)N1Cc2cc(C3CCN(CC(F)(F)F)CC3)cc(N3CCCc4cc(-c5cnn(C)c5)c(C(F)F)cc43)c2C1` [Compound M001057]: the IC50 in assay [1] and in assay [2] was greater than 1000 nM throughout.

Regarding `CC(=O)N1Cc2cc(C3CCN(CC(F)F)CC3)cc(N3CCCc4cc(-c5cnn(C)c5)c(C(F)F)cc43)c2C1` [Compound M001058], the IC50 in assay [1] and in assay [2] was greater than 1000 nM throughout.

As to `CNC(=O)N1CCc2cc(C3CCN(C4COC4)CC3)cc(N3CCCc4cc(-c5cnn(C)c5)c(C(F)F)cc43)c2C1` [Compound M001059], the IC50 in assay [1] and in assay [2] was greater than 1000 nM each time.

Take `CNC(=O)N1CCc2cc(C3CCN(CC(F)(F)F)CC3)cc(N3CCCc4cc(-c5cnn(C)c5)c(C(F)F)cc43)c2C1` [Compound M001060]: the IC50 in assay [1] and in assay [2] was greater than 1000 nM in each case.

Take `CC(=O)N1Cc2cc(C3CCC(O)CC3)cc(N3CCCc4cc(-c5cnn(C)c5)c(C(F)F)cc43)c2C1` (centres unmarked) [Compound M001064]: the values for the IC50 in assay [1] and in assay [2] were greater than 1000 nM and less than 1000 nM, respectively.

Take `CC(=O)N1Cc2cc(C3CCC(F)(F)CC3)cc(N3CCCc4cc(-c5cnn(C)c5)c(C(F)F)cc43)c2C1` [Compound M001066]: the IC50 in assay [1] and in assay [2] was greater than 1000 nM each time.

For `CNC(=O)N1CCc2cc(C3CCN(C(C)=O)CC3)cc(N3CCCc4cc(-c5cnn(C)c5)c(C(F)F)cc43)c2C1` [Compound M001068], the IC50 in assay [1] and in assay [2] was less than 1000 nM in each case.

On to `CNC(=O)N1CCc2cc(C3CCN(C(=O)C4CC4)CC3)cc(N3CCCc4cc(-c5cnn(C)c5)c(C(F)F)cc43)c2C1` [Compound M001069], for which the IC50 in assay [1] is less than 1000 nM; in assay [2], greater than 1000 nM.

Consider `CNC(=O)N1CCc2cc(C3CCN(CC#N)CC3)cc(N3CCCc4cc(-c5cnn(C)c5)c(C(F)F)cc43)c2C1` [Compound M001070], for which the IC50 in assay [1] and in assay [2] was greater than 1000 nM in each case.

Take `CC(=O)N1CCC(c2cc3c(c(N4CCCc5cc(-c6cnn(C)c6)c(C(F)F)cc54)c2)CN(C(C)=O)C3)CC1` [Compound M001071]: the IC50 in assay [1] and in assay [2] was greater than 1000 nM in each case.

Consider `CC(=O)N1Cc2cc(C3CCN(C(=O)C4CC4)CC3)cc(N3CCCc4cc(-c5cnn(C)c5)c(C(F)F)cc43)c2C1` [Compound M001072], for which the IC50 in assay [1] and in assay [2] was greater than 1000 nM in each case.

Take `CC(=O)N1Cc2cc(C3CCN(C(=O)C(C)O)CC3)cc(N3CCCc4cc(-c5cnn(C)c5)c(C(F)F)cc43)c2C1` (centres unmarked) [Compound M001073]: the IC50 in assay [1] and in assay [2] was greater than 1000 nM each time.

For the molecule `CC(=O)N1Cc2cc(C3CCN(CC#N)CC3)cc(N3CCCc4cc(-c5cnn(C)c5)c(C(F)F)cc43)c2C1` [Compound M001074], the IC50 in assay [1] and in assay [2] was less than 1000 nM throughout.

Take `CNC(=O)N1CCc2cc(C3CCN(C(=O)C4CCNC4)CC3)cc(N3CCCc4cc(-c5cnn(C)c5)c(C(F)F)cc43)c2C1` (centres unmarked) [Compound M001075]: the IC50 in assay [1] and in assay [2] was greater than 1000 nM each time.

As to `CC(=O)N1Cc2cc(C3CCN(C(=O)C4CNC4)CC3)cc(N3CCCc4cc(-c5cnn(C)c5)c(C(F)F)cc43)c2C1` [Compound M001079], the IC50 in assay [1] and in assay [2] was greater than 1000 nM in each case.

As to `CC(=O)N1Cc2cc(C3CCN(C(=O)C4CCNC4)CC3)cc(N3CCCc4cc(-c5cnn(C)c5)c(C(F)F)cc43)c2C1` (centres unmarked) [Compound M001080], the IC50 in assay [1] and in assay [2] was greater than 1000 nM throughout.

Take `CC(=O)N1Cc2cc(C3CCN(C(=O)c4ccccc4)CC3)cc(N3CCCc4cc(-c5cnn(C)c5)c(C(F)F)cc43)c2C1` [Compound M001081]: the IC50 in assay [1] and in assay [2] was less than 1000 nM each time.

With `CNC(=O)N1CCc2cc(C3CCN(C(=O)C4CNC4)CC3)cc(N3CCCc4cc(-c5cnn(C)c5)c(C(F)F)cc43)c2C1` [Compound M001083], the IC50 in assay [1] and in assay [2] was greater than 1000 nM in each case.

As to `CNC(=O)N1CCc2cc(C3CCN(C(=O)C4CN(C)C4)CC3)cc(N3CCCc4cc(-c5cnn(C)c5)c(C(F)F)cc43)c2C1` [Compound M001084], the IC50 in assay [1] and in assay [2] was greater than 1000 nM in each case.

On to `CNC(=O)N1CCc2cc(C3CCN(C(=O)C4CCN(C)C4)CC3)cc(N3CCCc4cc(-c5cnn(C)c5)c(C(F)F)cc43)c2C1` (centres unmarked) [Compound M001085], for which the IC50 in assay [1] and in assay [2] was greater than 1000 nM each time.

For the molecule `CC(=O)N1Cc2cc(C3CCN(C(=O)C4CN(C)C4)CC3)cc(N3CCCc4cc(-c5cnn(C)c5)c(C(F)F)cc43)c2C1` [Compound M001086], the IC50 in assay [1] and in assay [2] was greater than 1000 nM in each case.

On to `CC(=O)N1Cc2cc(C3CCN(C(=O)C4CCN(C)C4)CC3)cc(N3CCCc4cc(-c5cnn(C)c5)c(C(F)F)cc43)c2C1` (centres unmarked) [Compound M001087], for which the IC50 in assay [1] and in assay [2] was greater than 1000 nM throughout.

`CNC(=O)N1CCc2cc(C3=CC4CCC(C3)N4)cc(N3CCCc4cc(-c5cnn(C)c5)c(C(F)F)cc43)c2C1` (centres unmarked) [Compound M001088]: the IC50 in assay [1] and in assay [2] was greater than 1000 nM in each case.

In the case of `CNC(=O)N1CCc2cc(C3CC4CCC(C3)N4)cc(N3CCCc4cc(-c5cnn(C)c5)c(C(F)F)cc43)c2C1` (centres unmarked) [Compound M001089], the IC50 in assay [1] and in assay [2] was greater than 1000 nM throughout.

Take `CNC(=O)N1CCc2cc(C3=CCC4(CC3)OCCO4)cc(N3CCCc4cc(-c5cnn(C)c5)c(C(F)F)cc43)c2C1` [Compound M001090]: the IC50 in assay [1] and in assay [2] was greater than 1000 nM throughout.

Turning to `CNC(=O)N1Cc2cc(C3CC4CCC(C3)N4C)cc(N3CCCc4cc(-c5cnn(C)c5)c(C(F)F)cc43)c2C1` (centres unmarked) [Compound M001092], the 50% inhibitory concentration (IC50) in assay [1] and in assay [2] was greater than 1000 nM each time.

`CNC(=O)N1Cc2cc(C3CCC(F)(F)CC3)cc(N3CCCc4cc(-c5cnn(C)c5)c(C(F)F)cc43)c2C1` [Compound M001094]: the IC50 in assay [1] and in assay [2] was greater than 1000 nM in each case.

Turning to `CNC(=O)N1Cc2cc(C3CC4CCC(C3)N4C(C)=O)cc(N3CCCc4cc(-c5cnn(C)c5)c(C(F)F)cc43)c2C1` (centres unmarked) [Compound M001095], the IC50 in assay [1] and in assay [2] was greater than 1000 nM each time.

For `CNC(=O)N1Cc2cc(C3=CCN(C(=O)OCc4ccccc4)CC3)cc(N3CCCc4cc(-c5cnn(C)c5)c(C(F)F)cc43)c2C1` [Compound M001096], the IC50 in assay [1] and in assay [2] was greater than 1000 nM in each case.

Regarding `CNC(=O)N1Cc2cc(C3=CC4CCC(C3)N4C(=O)OC(C)(C)C)cc(N3CCCc4cc(-c5cnn(C)c5)c(C(F)F)cc43)c2C1` (centres unmarked) [Compound M001097], the IC50 in assay [1] and in assay [2] was greater than 1000 nM each time.

In the case of `CNC(=O)N1Cc2cc(C3=CC4CCC(C3)N4)cc(N3CCCc4cc(-c5cnn(C)c5)c(C(F)F)cc43)c2C1` (centres unmarked) [Compound M001098], the IC50 in assay [1] and in assay [2] was greater than 1000 nM in each case.

With `CNC(=O)N1Cc2cc(C3CC4CCC(C3)N4)cc(N3CCCc4cc(-c5cnn(C)c5)c(C(F)F)cc43)c2C1` (centres unmarked) [Compound M001099], the IC50 in assay [1] and in assay [2] was greater than 1000 nM throughout.

Regarding `CC(=O)N1Cc2cc(C3CCC4(CC3)OCCO4)cc(N3CCCc4cc(-c5cnn(C)c5)c(C(F)F)cc43)c2C1` [Compound M001101], the IC50 in assay [1] and in assay [2] was less than 1000 nM each time.

`CC(=O)N1Cc2cc(C3CCC(=O)CC3)cc(N3CCCc4cc(-c5cnn(C)c5)c(C(F)F)cc43)c2C1` [Compound M001102]: the IC50 in assay [1] was greater than 1000 nM; in assay [2], less than 1000 nM.

On to `CNC(=O)N1CCc2cc(C3CCC(=O)CC3)cc(N3CCCc4cc(-c5cnn(C)c5)c(C(F)F)cc43)c2C1` [Compound M001103], for which the IC50 in assay [1] and in assay [2] was greater than 1000 nM throughout.

For the molecule `CNC(=O)N1Cc2cc(C3CC4CCC(C3)N4C(=O)NC)cc(N3CCCc4cc(-c5cnn(C)c5)c(C(F)F)cc43)c2C1` (centres unmarked) [Compound M001116], the IC50 in assay [1] and in assay [2] was greater than 1000 nM in each case.

On to `CNC(=O)N1Cc2cc(C3CCNC(=O)C3)cc(N3CCCc4cc(-c5cnn(C)c5)c(C(F)F)cc43)c2C1` (centres unmarked) [Compound M001118], for which the IC50 in assay [1] and in assay [2] was greater than 1000 nM throughout.

Consider `CNC(=O)N1Cc2cc(C3CCN(C)C(=O)C3)cc(N3CCCc4cc(-c5cnn(C)c5)c(C(F)F)cc43)c2C1` (centres unmarked) [Compound M001119], for which the IC50 in assay [1] and in assay [2] was greater than 1000 nM in each case.

Take `CNC(=O)N1Cc2cc(-c3ccccc3)cc(N3CCCc4cc(-c5cnn(C)c5)c(C(F)F)cc43)c2C1` [Compound M001120]: the IC50 in assay [1] and in assay [2] was greater than 1000 nM throughout.

For `CNC(=O)N1Cc2cc(-c3ccc(OC)cc3)cc(N3CCCc4cc(-c5cnn(C)c5)c(C(F)F)cc43)c2C1` [Compound M001121], the IC50 in assay [1] and in assay [2] was greater than 1000 nM throughout.
